Test results as given in the NIST ThermoML archive (doi:10.1021/je8006265).
Numbers after ± are expanded uncertainties.

settings: 298.15 K; 101.33 kPa; Crystal

| mass density [kg/m3] | Structure (SMILES) |
| --- | --- |
| 1216.68 ± 1.9 | c1ccc2[nH]ccc2c1 [1H-indole] |

same assay, conditions: 298.15 K; 101.33 kPa; Liquid

| Structure (SMILES) | mass density [kg/m3] |
| --- | --- |
| c1ccncc1 [pyridine] | 978.25 ± 0.27 |
| CCCCCCCCCCCCCCCC [hexadecane] | 773.19 ± 0.32 |
| Nc1ccccc1 [aniline] | 1017.42 ± 0.2 |

The remaining lines, values ahead:

| mass density [kg/m3] | Structure (SMILES) |
| --- | --- |
| 965.9 ± 2.9 | c1cc[nH]c1 [pyrrole] |
| 1089.45 ± 0.31 | c1ccc2ncccc2c1 [quinoline] |
